# Measured values: ChEMBL document CHEMBL1201862, “PubChem BioAssay data set” (2004)
#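 A five-concentration, 48-hour dose response in 96-well plates underlies each endpoint, interpolated linearly between surrounding concentrations. GI50 = concentration required for 50% inhibition of growth.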 Activity calls are given as the source filed them. No stated cut-off is given here; in the data, active = GI50 up to about 1.1 µM and inactive = higher.
# Experiments:
# Test in all cases: growth of human tumour cells (NCI), 48 h
# SW-620 = system: SW-620
# COLO 205 = system: COLO 205
# SNB-19 = system: SNB-19
# SF-268 = system: SF-268
# MDA-N = system: MDA-N
# HCT-15 = system: HCT-15
# SNB-75 = system: SNB-75
# NCI/ADR-RES = system: NCI/ADR-RES
# U-251 = system: U-251
# UACC-62 = system: UACC-62
# OVCAR-4 = system: OVCAR-4
# DU-145 = system: DU-145
# M14 = system: M14
# T47D = system: T47D
# SK-MEL-28 = system: SK-MEL-28
# A498 = system: A498
# MDA-MB-231 = system: MDA-MB-231
# K562 = system: K562
# PC-3 = system: PC-3
# ACHN = system: ACHN
# EKVX = system: EKVX
# OVCAR-3 = system: OVCAR-3
# 786-0 = system: 786-0
# HOP-92 = system: HOP-92
# MOLT-4 = system: MOLT-4
# UO-31 = system: UO-31
# CCRF-CEM = system: CCRF-CEM
# HCC 2998 = system: HCC 2998
# SR = system: SR
# SK-MEL-2 = system: SK-MEL-2
# Hs-578T = system: Hs-578T
# KM12 = system: KM12
# BT-549 = system: BT-549
# OVCAR-5 = system: OVCAR-5
# IGROV-1 = system: IGROV-1
# HOP-62 = system: HOP-62
# RPMI-8226 = system: RPMI-8226
# NCI-H460 = system: NCI-H460
# HCT-116 = system: HCT-116
# SN12C = system: SN12C
# SK-OV-3 = system: SK-OV-3
# MDA-MB-435 = system: MDA-MB-435
# HL-60 = system: HL-60
# LOX IMVI = system: LOX IMVI
# CAKI-1 = system: CAKI-1
# NCI-H23 = system: NCI-H23
# SF-295 = system: SF-295
# NCI-H226 = system: NCI-H226
# SK-MEL-5 = system: SK-MEL-5
# NCI-H522 = system: NCI-H522
# RXF 393 = system: RXF 393
# HT-29 = system: HT-29
# MCF7 = system: MCF7
# A549 = system: A549
# Malme-3M = system: Malme-3M
# OVCAR-8 = system: OVCAR-8
# UACC-257 = system: UACC-257
# SF-539 = system: SF-539
# TK-10 = system: TK-10
smiles,measurement,setting,value
O=C1O[C@H]2[C@@H]3OC(=O)c4cc(O)c(O)c(O)c4-c4c(cc(O)c(O)c4O)C(=O)OC[C@H]2O[C@@H](OC(=O)c2cc(O)c(O)c(O)c2)[C@@H]3OC(=O)c2cc(O)c(O)c3c2[C@@H]2C1=CC(=O)C(O)(O)C2(O)O3 (some centres not stated),GI50,SW-620,18.5 µM (inactive)
same,GI50,COLO 205,25.9 µM (inactive)
same,GI50,SNB-19,76.9 µM (inactive)
same,GI50,SF-268,74.1 µM (inactive)
same,GI50,MDA-N,16 µM (inactive)
same,GI50,HCT-15,21.9 µM
same,GI50,SNB-75,24.6 µM (inactive)
same,GI50,NCI/ADR-RES,39.3 µM (inactive)
same,GI50,U-251,15.6 µM (inactive)
same,GI50,UACC-62,30.1 µM (inactive)
same,GI50,OVCAR-4,15.2 µM (inactive)
same,GI50,DU-145,47 µM (inactive)
same,GI50,M14,19.7 µM (inactive)
same,GI50,T47D,26.8 µM (inactive)
same,GI50,SK-MEL-28,> 100 µM (inactive)
same,GI50,A498,82.8 µM (inactive)
same,GI50,MDA-MB-231,19.8 µM (inactive)
same,GI50,K562,29.6 µM (inactive)
same,GI50,PC-3,39.7 µM (inactive)
same,GI50,ACHN,31.5 µM (inactive)
same,GI50,EKVX,16.1 µM (inactive)
same,GI50,OVCAR-3,35.6 µM (inactive)
same,GI50,786-0,18.1 µM (inactive)
same,GI50,HOP-92,27.7 µM (inactive)
same,GI50,MOLT-4,25.9 µM (inactive)
same,GI50,UO-31,21.7 µM (inactive)
same,GI50,CCRF-CEM,27 µM (inactive)
same,GI50,HCC 2998,21 µM (inactive)
same,GI50,SR,29 µM (inactive)
same,GI50,SK-MEL-2,29.9 µM (inactive)
same,GI50,Hs-578T,40.4 µM (inactive)
same,GI50,KM12,22.1 µM (inactive)
same,GI50,BT-549,72.8 µM (inactive)
same,GI50,OVCAR-5,16.4 µM (inactive)
same,GI50,IGROV-1,52.8 µM (inactive)
same,GI50,HOP-62,38.8 µM (inactive)
same,GI50,RPMI-8226,38.3 µM (inactive)
same,GI50,NCI-H460,33 µM (inactive)
same,GI50,HCT-116,16.9 µM (inactive)
same,GI50,SN12C,16.9 µM (inactive)
same,GI50,SK-OV-3,11 µM (inactive)
same,GI50,MDA-MB-435,16.7 µM (inactive)
same,GI50,HL-60,20.7 µM (inactive)
same,GI50,LOX IMVI,13.3 µM (inactive)
same,GI50,CAKI-1,14.1 µM (inactive)
same,GI50,NCI-H23,33.1 µM (inactive)
same,GI50,SF-295,31.6 µM (inactive)
same,GI50,NCI-H226,23.2 µM (inactive)
same,GI50,SK-MEL-5,25.5 µM (inactive)
same,GI50,NCI-H522,28.1 µM (inactive)
same,GI50,RXF 393,36.5 µM (inactive)
same,GI50,HT-29,16.5 µM (inactive)
same,GI50,MCF7,25.2 µM (inactive)
same,GI50,A549,25.9 µM (inactive)
same,GI50,Malme-3M,84.9 µM (inactive)
same,GI50,OVCAR-8,19.5 µM (inactive)
same,GI50,UACC-257,51.6 µM (inactive)
COc1ccc(OC2OC(CO)C(OCc3ccccc3)C(OCc3ccccc3)C2OCc2ccccc2)cc1 (configuration not stated),GI50,SW-620,> 100 µM (inactive)
same,GI50,COLO 205,44.4 µM (inactive)
same,GI50,SNB-19,> 100 µM (inactive)
same,GI50,SF-268,22.3 µM (inactive)
same,GI50,SF-539,63.2 µM (inactive)
same,GI50,MDA-N,76 µM (inactive)
same,GI50,SNB-75,11.3 µM (inactive)
same,GI50,NCI/ADR-RES,61.9 µM (inactive)
same,GI50,U-251,25.7 µM (inactive)
same,GI50,UACC-62,> 100 µM (inactive)
same,GI50,DU-145,> 100 µM (inactive)
same,GI50,M14,> 100 µM (inactive)
same,GI50,T47D,18.8 µM (inactive)
same,GI50,SK-MEL-28,> 100 µM (inactive)
same,GI50,A498,> 100 µM (inactive)
same,GI50,MDA-MB-231,> 100 µM (inactive)
same,GI50,K562,6.1 µM (inactive)
same,GI50,PC-3,1.48 µM (inactive)
same,GI50,ACHN,31.6 µM (inactive)
same,GI50,EKVX,11.4 µM (inactive)
same,GI50,OVCAR-3,> 100 µM (inactive)
same,GI50,786-0,39.5 µM (inactive)
same,GI50,MOLT-4,2.02 µM (inactive)
same,GI50,UO-31,41 µM (inactive)
same,GI50,CCRF-CEM,6.98 µM (inactive)
same,GI50,HCC 2998,> 100 µM (inactive)
same,GI50,SR,15.5 µM (inactive)
same,GI50,SK-MEL-2,> 100 µM (inactive)
same,GI50,Hs-578T,56.9 µM (inactive)
same,GI50,KM12,72.9 µM (inactive)
same,GI50,BT-549,> 100 µM (inactive)
same,GI50,OVCAR-5,> 100 µM (inactive)
same,GI50,IGROV-1,> 100 µM (inactive)
same,GI50,HOP-62,> 100 µM (inactive)
same,GI50,RPMI-8226,> 100 µM (inactive)
same,GI50,NCI-H460,15.8 µM (inactive)
same,GI50,HCT-116,14.8 µM (inactive)
same,GI50,SN12C,17.5 µM (inactive)
same,GI50,SK-OV-3,> 100 µM (inactive)
same,GI50,MDA-MB-435,> 100 µM (inactive)
same,GI50,HL-60,88.9 µM (inactive)
same,GI50,LOX IMVI,> 100 µM (inactive)
same,GI50,CAKI-1,> 100 µM (inactive)
same,GI50,NCI-H23,14.4 µM (inactive)
same,GI50,SF-295,76.7 µM (inactive)
same,GI50,NCI-H226,> 100 µM (inactive)
same,GI50,SK-MEL-5,54.8 µM (inactive)
same,GI50,NCI-H522,40 µM (inactive)
same,GI50,HT-29,9.79 µM (inactive)
same,GI50,MCF7,25.9 µM (inactive)
same,GI50,A549,11.1 µM (inactive)
same,GI50,Malme-3M,39.1 µM (inactive)
same,GI50,TK-10,> 100 µM (inactive)
same,GI50,OVCAR-8,> 100 µM (inactive)
same,GI50,UACC-257,> 100 µM (inactive)
